Where “and” joins values, the source holds several entries; their conditions need not be identical. Equal entries are not always repeated.
What was measured:
CEA, AFP, CA19-9 = experiment: Circulatory tumor-specific markers before vs after ITPP; format: in vivo, human; details: for Tumor marker AFP / Tumor marker CEA: individual patients
Source text: Load the raw data of the tumor marker measurements, calculate fold changes (FC) and percentage changes comparing measurments per patient before and after ITPP treatment.

[1] = test system: target lesions of PDAC, CRLM, CCA and HCC; experiment: Metabolic radiological response, FDG-PET-CT, EORTC criteria; format: in vivo, human; parameters: key to EORTC response after chemotherapy / EORTC response after ITPP / RespITPP_EORTC / RespChemo_EORTC: CMR = complete metabolic response; PMR = partial metabolic response; SMD = stable metabolic disease; PMD = progressive metabolic disease; Median change in metabolic activity, EORTC: concentration or dose not given beside the values; Lesion1_pre_TLG / Lesion1_post_TLG / Lesion1_chemo_TLG / Lesion2_pre_TLG / Lesion2_post_TLG / Lesion2_chemo_TLG / Lesion3_pre_TLG / Lesion3_post_TLG / Lesion3_chemo_TLG / Lesion4_pre_TLG / Lesion4_post_TLG / Lesion4_chemo_TLG / Lesion5_pre_TLG / Lesion5_post_TLG / Lesion5_chemo_TLG: unit not given here; details: for EORTC response after chemotherapy: chemotherapy subsequent to ITPP; for RespITPP_EORTC / RespChemo_EORTC: EORTC
Protocol: Radiological assessment, consisting of abdominal MRI and FDG-PET-CT, was performed before ITPP administration and after the 3-week treatment course. Where possible, radiological re-evaluation was performed after 3–6 cycles of chemotherapy. Radiological responses were evaluated according to the RECIST 1.1 criteria[56] for MRI and EORTC criteria[57] for FDG-PET-CT imaging.
Then first calculate the sum of diameters (DM) and SUV-activities of radiological target lesions before ITPP (sum_pre), after ITPP (sum_post) and after subsequent chemotherapy (sum_chemo) for assessment of morphological RECIST1.1 (diameter) and metabolical EORTC (SUV activiy) responses.
Patient 1 (dropout after only 2 infusions and subsequent death due to rapid oncological progression) is excluded for radiological assessment due to no follow up imaging available.
In a second step, we calculate percent changes (PC) of diameter and SUV activity between before ITPP, after ITPP and after chemotherapy.

[2] = of 22 patients with elevated markers, under ITPP
[3] = after chemotherapy subsequent to ITPP, 15 patients
[4] = individual patients, lesion 1, after subsequent chemotherapy
[5] = individual patients, lesion 1, post ITPP
[6] = individual patients, lesion 1, pre ITPP (baseline)
[7] = individual patients, lesion 2, after subsequent chemotherapy
[8] = individual patients, lesion 2, post ITPP
[9] = individual patients, lesion 2, pre ITPP (baseline)
[10] = individual patients, lesion 3, after subsequent chemotherapy
[11] = individual patients, lesion 3, post ITPP
[12] = individual patients, lesion 3, pre ITPP (baseline)
[13] = individual patients, lesion 4, after subsequent chemotherapy
[14] = individual patients, lesion 4, post ITPP
[15] = individual patients, lesion 4, pre ITPP (baseline)
[16] = individual patients, lesion 5, after subsequent chemotherapy
[17] = individual patients, lesion 5, post ITPP
[18] = individual patients, lesion 5, pre ITPP (baseline)

## O=P1(O)OC2C3OP(=O)(O)OP(=O)(O)OC3C3OP(=O)(O)OP(=O)(O)OC3C2OP(=O)(O)O1 (centres unmarked) [ITPP, Myo-inositol trispyrophosphate]
CEA, AFP, CA19-9; CEA, AFP, CA19-9
  Patients with tumor markers not elevated: 5/27
CEA, AFP, CA19-9; Day 1 pre (baseline before ITPP)
  Tumor marker AFP: 1572 µg/L and 11.2 µg/L and 270600 µg/L
CEA, AFP, CA19-9; Day 1 pre (baseline before ITPP), ITPP cohort 2
  Tumor marker CEA: 2.8 µg/L
CEA, AFP, CA19-9; Day 1 pre (baseline before ITPP), ITPP cohort 3
  Tumor marker CEA: 169.8 µg/L
CEA, AFP, CA19-9; Day 1 pre (baseline before ITPP), ITPP cohort 6
  Tumor marker CEA: 3.2 µg/L and 1 µg/L and 291.6 µg/L
CEA, AFP, CA19-9; Day 1 pre (baseline before ITPP), ITPP cohort 7
  Tumor marker CEA: 2205 µg/L and 2068 µg/L
CEA, AFP, CA19-9; Day 1 pre (baseline before ITPP), ITPP cohort 8
  Tumor marker CEA: 7058 µg/L
CEA, AFP, CA19-9; Day 3 post
  Tumor marker AFP: 1167 µg/L and 11.2 µg/L
CEA, AFP, CA19-9; Day 3 post, ITPP cohort 2
  Tumor marker CEA: 2.9 µg/L
CEA, AFP, CA19-9; Day 3 post, ITPP cohort 3
  Tumor marker CEA: 165.1 µg/L
CEA, AFP, CA19-9; Day 3 post, ITPP cohort 6
  Tumor marker CEA: 3.2 µg/L and 2.3 µg/L and 300.1 µg/L
CEA, AFP, CA19-9; Day 3 post, ITPP cohort 7
  Tumor marker CEA: 2190 µg/L and 2209 µg/L
CEA, AFP, CA19-9; Day 3 post, ITPP cohort 8
  Tumor marker CEA: 7145 µg/L
CEA, AFP, CA19-9; Day 9 post
  Tumor marker AFP: 1017 µg/L and 5.1 µg/L and 204800 µg/L
CEA, AFP, CA19-9; Day 9 post, ITPP cohort 2
  Tumor marker CEA: 2.9 µg/L
CEA, AFP, CA19-9; Day 9 post, ITPP cohort 3
  Tumor marker CEA: 247.8 µg/L
CEA, AFP, CA19-9; Day 9 post, ITPP cohort 6
  Tumor marker CEA: 4.6 µg/L and 1 µg/L and 451 µg/L
CEA, AFP, CA19-9; Day 9 post, ITPP cohort 7
  Tumor marker CEA: 2055 µg/L and 3058 µg/L
CEA, AFP, CA19-9; Day 9 post, ITPP cohort 8
  Tumor marker CEA: 7626 µg/L
CEA, AFP, CA19-9; [2]
  Patients with a decrease in tumor marker levels: 11
  Patients with an increase in tumor marker levels: 11
[1]; CCA, following chemotherapy
  Median change in metabolic activity, EORTC: −32.39%
[1]; CCA, under ITPP monotherapy
  Median change in metabolic activity, EORTC: 17.97%
[1]; CRLM, following chemotherapy
  Median change in metabolic activity, EORTC: −14.64%
[1]; CRLM, under ITPP monotherapy
  Median change in metabolic activity, EORTC: 40.1%
[1]; HCC, following chemotherapy
  Median change in metabolic activity, EORTC: −8.47%
[1]; HCC, under ITPP monotherapy
  Median change in metabolic activity, EORTC: 15.54%
[1]; ITPP monotherapy
  Share of patients with PMR: 15%
  Share of patients with SMD: 41%
[1]; PDAC, following chemotherapy
  Median change in metabolic activity, EORTC: −52.19%
[1]; PDAC, under ITPP monotherapy
  Median change in metabolic activity, EORTC: −3.36%
[1]; after ITPP monotherapy
  Metabolic progressions (PMD), EORTC: 10
  Partial metabolic responses (PMR), EORTC: four
  Stable metabolic diseases (SMD), EORTC: 11
[1]; [3]
  Patients with PMD, EORTC: 4
  Patients with PMR, EORTC: 4
  Patients with SMD, EORTC: 7
[1]; after subsequent chemotherapy
  Share of patients with PMR: 27%
  Share of patients with SMD: 47%
[1]; individual patients, cohort 1 (1866 mg/m2)
  EORTC response after ITPP: PMD and PMR and SMD
[1]; individual patients, cohort 1, 1866 mg/m2
  EORTC response after chemotherapy: PMR
[1]; individual patients, cohort 2 (3732 mg/m2)
  EORTC response after ITPP: SMD and PMR
[1]; individual patients, cohort 2, 3732 mg/m2
  EORTC response after chemotherapy: SMD and PMR
[1]; individual patients, cohort 3 (5600 mg/m2)
  EORTC response after ITPP: SMD and PMR
[1]; individual patients, cohort 3, 5600 mg/m2
  EORTC response after chemotherapy: SMD and PMD
[1]; individual patients, cohort 4 (7000 mg/m2)
  EORTC response after ITPP: PMD and SMD
[1]; individual patients, cohort 4, 7000 mg/m2
  EORTC response after chemotherapy: SMD
[1]; individual patients, cohort 5 (8750 mg/m2)
  EORTC response after ITPP: SMD and PMD
[1]; individual patients, cohort 5, 8750 mg/m2
  EORTC response after chemotherapy: PMD
[1]; individual patients, cohort 6 (10500 mg/m2)
  EORTC response after ITPP: PMD and SMD
[1]; individual patients, cohort 6, 10500 mg/m2
  EORTC response after chemotherapy: PMD and PMR and SMD
[1]; individual patients, cohort 7 (12390 mg/m2)
  EORTC response after ITPP: PMD and PMR
[1]; individual patients, cohort 7, 12390 mg/m2
  EORTC response after chemotherapy: SMD
[1]; individual patients, cohort 8 (14500 mg/m2)
  EORTC response after ITPP: PMD and SMD
[1]; individual patients, cohort 8, 14500 mg/m2
  EORTC response after chemotherapy: SMD
[1]; [4]
  Lesion1_chemo_SUV: 13.27 and 7.35 and 9.2 and 4.3 and 17.8 and 12.2 and 6.7 and 7.2 and 13.5 and 10.7 and 12.4 and 5.5 and 7.7 and 6.77
  Lesion1_chemo_TLG: 4678.1 and 60.2 and 158.8 and 9.1 and 331.5 and 23.3 and 13.1 and 256.8 and 487.3 and 17.2 and 3.8 and 24.1
[1]; [5]
  Lesion1_post_SUV: 17.32 and 8.65 and 4.69 and 14.2 and 13.2 and 10.3 and 8.4 and 9.8 and 10.7 and 12.2 and 18.4 and 13.9 and 18.7 and 7.5 and 12 and 8.8 and 12.7 and 10.8 and 45.7 and 4.25 and 11.68 and 7.7 and 10.67 and 9.79
  Lesion1_post_TLG: 7101.9 and 86.3 and 302.7 and 877.7 and 139.3 and 181.7 and 75 and 382.8 and 112.3 and 878.1 and 21.6 and 249.1 and 3441.2 and 63.2 and 62.4 and 4.1 and 71.4 and 2012.6
[1]; [6]
  Lesion1_pre_SUV: 14.29 and 12.03 and 5.25 and 9.2 and 10.8 and 9.1 and 7.6 and 8 and 8.3 and 7 and 14.1 and 9.3 and 12.4 and 9 and 13.2 and 11 and 12.04 and 21.6 and 5.32 and 11.06 and 6.36 and 11.68 and 11.22
  Lesion1_pre_TLG: 4372.3 and 124.4 and 1117.7 and 865.6 and 104.9 and 699.3 and 37.5 and 197.8 and 43.3 and 531.1 and 1331.5 and 11.5 and 69 and 261.2 and 492.5 and 34.8 and 58.7 and 2.3 and 148.5 and 3074.9
[1]; [7]
  Lesion2_chemo_SUV: 4.43 and 13.5 and 11.3 and 7.8 and 11.2 and 11 and 7 and 9.4 and 9.6 and 7.5 and 10.3 and 10.5 and 3.4 and 4.42 and 3.74
  Lesion2_chemo_TLG: 4.9 and 33.2 and 133.7 and 36.1 and 149.3 and 14.3 and 27.9 and 32.3 and 3.9 and 12.6 and 26.7
[1]; [8]
  Lesion2_post_SUV: 4.64 and 3.03 and 11.4 and 7.9 and 6.6 and 12.3 and 14 and 13.6 and 9 and 9.6 and 8.6 and 8.1 and 8.4 and 10.3 and 40.7 and 6.42 and 6.24 and 10.36 and 3.73
  Lesion2_post_TLG: 7.8 and 11.6 and 331.6 and 39.8 and 377.1 and 65.2 and 12.4 and 11.8 and 24.4 and 19.9 and 14.3 and 147.3 and 3.1
[1]; [9]
  Lesion2_pre_SUV: 3.34 and 10.83 and 7.9 and 7.2 and 3.9 and 7.6 and 11.6 and 13 and 5 and 7.8 and 5.5 and 3 and 10.2 and 13.3 and 20.8 and 5.84 and 5.77 and 11.3 and 4.77
  Lesion2_pre_TLG: 3.9 and 7.1 and 175.5 and 11.2 and 263.8 and 27.2 and 31.1 and 3.3 and 23.7 and 55 and 21.4 and 24.9 and 86.2 and 13.2
[1]; [10]
  Lesion3_chemo_SUV: 10.68 and 18.07 and 6.5 and 2.3 and 9.2 and 3.6 and 3.1 and 10.9 and 2.7 and 2.5 and 0
  Lesion3_chemo_TLG: 308 and 244.4 and 13.2 and 1 and 42.3 and 3.4 and 0.3 and 0
[1]; [11]
  Lesion3_post_SUV: 13.38 and 8.25 and 7.8 and 2.7 and 13 and 9.9 and 13.6 and 3.9 and 32.3 and 10.6 and 2.97 and 3.4
  Lesion3_post_TLG: 436.7 and 47.6 and 16.7 and 1.2 and 79.1 and 13.5 and 26.8 and 22.4 and 1.1 and 3.2
[1]; [12]
  Lesion3_pre_SUV: 12.41 and 13.89 and 10.1 and 2.3 and 3.6 and 5.8 and 13.7 and 2.6 and 10.84 and 19.9 and 10.9 and 2.7 and 7.35
  Lesion3_pre_TLG: 261.7 and 28.6 and 21.7 and 1 and 13.5 and 3.4 and 72.1 and 179.3 and 22.6 and 0.1 and 3.9
[1]; [13]
  Lesion4_chemo_SUV: 2.5 and 3.2 and 4.7 and 3.72
  Lesion4_chemo_TLG: 1.3 and 2.7 and 0 and 46.4
[1]; [14]
  Lesion4_post_SUV: 3.5 and 16.1 and 6.1 and 1.6 and 14.37
  Lesion4_post_TLG: 1.3 and 42.9 and 0 and 161.9
[1]; [15]
  Lesion4_pre_SUV: 7.6 and 11.5 and 4.2 and 8.83 and 3.9 and 13.22
  Lesion4_pre_TLG: 17.4 and 33.9 and 16.4 and 1.1 and 84.7
[1]; [16]
  Lesion5_chemo_SUV: 2 and 9.1 and 1.4 and 0
  Lesion5_chemo_TLG: 3.4 and 0
[1]; [17]
  Lesion5_post_SUV: 6.8 and 10.7 and 1.35 and 6.92
  Lesion5_post_TLG: 18.9 and 0 and 11.9
[1]; [18]
  Lesion5_pre_SUV: 7.3 and 11.5 and 6.85 and 3.5 and 3.76
  Lesion5_pre_TLG: 7.3 and 4.3 and 0.6 and 2.7
[1]; individual patients, metabolic response after ITPP monotherapy
  RespITPP_EORTC: SMD and PMR and PMD
[1]; individual patients, metabolic response after subsequent chemotherapy following ITPP
  RespChemo_EORTC: SMD and PMD and PMR
[1]; metabolic response after ITPP, per individual patient, cohort c1, tumor c2
  RespITPP_EORTC: SMD and PMR and PMD
[1]; metabolic response after chemotherapy following ITPP, per individual patient, cohort c1, tumor c2
  RespChemo_EORTC: SMD and PMD and PMR

From publication PMC8217170, “Phase Ib dose-escalation study of the hypoxia-modifier Myo-inositol trispyrophosphate in patients with hepatopancreatobiliary tumors” (Nature Communications, 2021)
